Experimental findings from PMC9814219 (Communications Chemistry, 2020) are described below.

The target in one experiment is T1, EstA (Clostridium botulinum, UniProt A5I055).
T1 construct: gene lipA

The next experiment has as its target T2, aAbPPO4 (Agaricus bisporus, UniProt C7FF05).
T2 construct: gene PPO4; N-terminal GST tag cleaved off with HRV 3C; expressed in E. coli BL21(DE3)
T2 sequence (C7FF05 1-379): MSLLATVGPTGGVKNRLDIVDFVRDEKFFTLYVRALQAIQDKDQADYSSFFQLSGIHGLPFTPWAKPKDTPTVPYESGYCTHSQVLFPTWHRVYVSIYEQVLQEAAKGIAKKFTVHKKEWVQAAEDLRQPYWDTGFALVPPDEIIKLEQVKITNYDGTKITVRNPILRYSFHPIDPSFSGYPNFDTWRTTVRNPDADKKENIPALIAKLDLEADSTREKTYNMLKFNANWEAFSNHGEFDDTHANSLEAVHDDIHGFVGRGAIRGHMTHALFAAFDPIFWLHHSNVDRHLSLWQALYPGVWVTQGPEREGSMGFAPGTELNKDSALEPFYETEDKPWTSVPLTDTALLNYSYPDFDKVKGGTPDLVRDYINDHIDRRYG
Nature of the experiment: activity on dopamine after pre-incubation and ultrafiltration, […] nm. It is filed as biochemical.

T1 sequence (A5I055 1-480): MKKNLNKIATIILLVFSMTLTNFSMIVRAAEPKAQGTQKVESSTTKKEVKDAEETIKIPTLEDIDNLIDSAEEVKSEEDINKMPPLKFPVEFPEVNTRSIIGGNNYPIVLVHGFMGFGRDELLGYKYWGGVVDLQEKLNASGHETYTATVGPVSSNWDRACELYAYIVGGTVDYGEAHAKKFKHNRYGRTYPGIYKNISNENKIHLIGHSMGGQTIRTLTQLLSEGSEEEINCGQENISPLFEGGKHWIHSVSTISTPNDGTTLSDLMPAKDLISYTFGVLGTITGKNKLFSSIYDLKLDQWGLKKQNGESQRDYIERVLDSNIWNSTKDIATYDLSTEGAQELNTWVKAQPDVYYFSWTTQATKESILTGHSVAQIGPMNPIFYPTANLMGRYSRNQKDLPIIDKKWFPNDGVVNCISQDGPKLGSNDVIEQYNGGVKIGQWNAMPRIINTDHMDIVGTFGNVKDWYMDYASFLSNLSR

For `CCCC(=O)Oc1ccc([N+](=O)[O-])cc1` [para-nitrophenyl butyrate], the “photometric, 4-nitrophenol release at 405 nm” value on EstA is “on the model substrate para-nitrophenyl butyrate (pNPB) compared to the uncleaved enzyme”.

In the case of `O=S(O)O` [sodium bisulphite], the “activity on dopamine after pre-incubation and ultrafiltration, 475 nm” value at aAbPPO4 is listed as “the loss of PPO activity of aAbPPO4 was verified by an activity assay with dopamine”.
